Here are results for 39 compounds from article PMC6095626, “Screening of the Pathogen Box for inhibitors with dual efficacy against Giardia lamblia and Cryptosporidium parvum” (PLoS Neglected Tropical Diseases, 2018).

Test [1] deals with C. parvum (UGA1 Nluc expressing strain in HCT-8 cells). As to the kind of experiment: microbe, parasite or virus in culture. The class given is cell-based, Cryptosporidium parvum. The following applies: initial Pathogen Box screen, single concentration 10 µM, inhibition compared to DMSO wells. Put shortly: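 HCT-8 monolayers grown 48 h to 90–100% confluence, treated with compound at 10 μM or serial dilutions, then infected with bleach-treated UGA1 Nluc C. parvum oocysts.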

Test [2] relates to G. lamblia trophozoites (luciferase expressing, WBC6). Description: microbe, parasite or virus in culture. The class given is cell-based, Giardia lamblia. Particulars: for Giardia (16 uM) Mean % inhibition: initial Pathogen Box screen, single concentration 16 µM, inhibition compared to DMSO wells. Put shortly: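 Luciferase-expressing WBC6 trophozoites plated at 250,000 cells/mL, compounds added 1:1, incubated anaerobically (GasPak bags) at 37 °C for 24 h; viability read by bioluminescence, with duplicate plates counted on a MOXI Z cell counter. Metronidazole control serially diluted 1:2 from 40 μM.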

Turning to `CC[C@H](CO)NCCN[C@H](CC)CO` [MMV687801], the “Crypto (10 uM) Mean % inhibition” value in test [1] was 8%. The “Giardia (16 uM) Mean % inhibition” value in test [2] is reported as “X* (Mean or standard deviation are negative but not significantly different from the control to be a growth promoter)”.

On to `CC(=O)NC[C@@H]1CN(c2ccc(N3CCOCC3)c(F)c2)C(=O)O1` [MMV687803], for which the “Crypto (10 uM) Mean % inhibition” value in test [1] was “X* (Mean or standard deviation are negative but not significantly different from the control to be a growth promoter)”. The “Giardia (16 uM) Mean % inhibition” value in test [2] is on record as “X* (Mean or standard deviation are negative but not significantly different from the control to be a growth promoter)”.

Consider `O=C1O[C@@H](COc2ccon2)CN1c1cc(F)c(C2=CCN(Cc3ccccc3)CC2)c(F)c1` [MMV687813], for which the “Crypto (10 uM) Mean % inhibition” value in test [1] is listed as 40%. Moreover, the “Giardia (16 uM) Mean % inhibition” value in test [2] was determined as 32%.

In the case of `Cc1cccc(-c2nc(Nc3ccncn3)c3sccc3n2)n1` [MMV688122], the “Crypto (10 uM) Mean % inhibition” value in test [1] came out at 93%. In test [2], the “Giardia (16 uM) Mean % inhibition” value is recorded as 33%.

`CCc1ccc(S(=O)(=O)Nc2cc(CN3CCN(CCC(C)C)CC3)ccc2C)cc1` [MMV688124]: in test [1], the “Crypto (10 uM) Mean % inhibition” value is recorded as “X* (Mean or standard deviation are negative but not significantly different from the control to be a growth promoter)”. Besides, the “Giardia (16 uM) Mean % inhibition” value in test [2] turned out to be 72%.

Regarding `CCCc1ccc(S(=O)(=O)Nc2ccc(CN3CCN(CC4CC4)CC3)cc2)cc1` [MMV688125], in test [1], the “Crypto (10 uM) Mean % inhibition” value is recorded as 50%. Also, the “Giardia (16 uM) Mean % inhibition” value in test [2] was determined as 59%.

`c1ccc(Oc2ccc(-c3cncc(-c4ccc5[nH]ccc5c4)n3)cc2)cc1` [MMV688178]: the “Crypto (10 uM) Mean % inhibition” value in test [1] came to 59%. For the same compound, the “Giardia (16 uM) Mean % inhibition” value in test [2] was “X* (Mean or standard deviation are negative but not significantly different from the control to be a growth promoter)”.

As to `NC(N)=Nc1ccc(-c2ccc(-c3ccc(N=C(N)N)cc3Cl)o2)c(Cl)c1` [MMV688179], the “Crypto (10 uM) Mean % inhibition” value in test [1] is recorded as 56%. Moreover, in test [2], the “Giardia (16 uM) Mean % inhibition” value was 11%.

As for `Cc1nn(C)c(C)c1NS(=O)(=O)c1c(Cl)cc(-c2ccnc(N3CCNCC3)c2)cc1Cl` [MMV688180], the “Crypto (10 uM) Mean % inhibition” value in test [1] is 66%. Besides, the “Giardia (16 uM) Mean % inhibition” value in test [2] stood at 21%.

For the compound `COc1ccc(-c2cnc3cnc(-c4cccc(OC(C)C)c4)cn23)cc1` [MMV688270], the “Crypto (10 uM) Mean % inhibition” value in test [1] is “X* (Mean or standard deviation are negative but not significantly different from the control to be a growth promoter)”. In test [2], the “Giardia (16 uM) Mean % inhibition” value is given as 10%.

Turning to `N=C(N)Nc1ccc(-c2ccc(-c3ccc(N=C(N)N)c(Cl)c3)o2)cc1Cl` [MMV688271], the “Crypto (10 uM) Mean % inhibition” value in test [1] is on record as 86%. Further, the “Giardia (16 uM) Mean % inhibition” value in test [2] came to 53%.

In the case of `Nc1ccc2ncnc(Nc3ccc(OCc4cccc(F)c4)c(Cl)c3)c2c1` [MMV688273], the “Crypto (10 uM) Mean % inhibition” value in test [1] is “X* (Mean or standard deviation are negative but not significantly different from the control to be a growth promoter)”. In addition, the “Giardia (16 uM) Mean % inhibition” value in test [2] was found to be 51%.

Turning to `O=C(CN1CCOCC1)Nc1ccc2ncnc(Nc3ccc(OCc4cccc(F)c4)c(Cl)c3)c2c1` [MMV688274], the “Crypto (10 uM) Mean % inhibition” value in test [1] was found to be 47%. In test [2], the “Giardia (16 uM) Mean % inhibition” value is 26%.

With `CC1=Nc2ccc(Cl)cc2C(O)(c2ccc(C)cc2)N1CCN1CCCCC1` (centres unmarked) [MMV688279], the “Crypto (10 uM) Mean % inhibition” value in test [1] is on record as 43%. Also, the “Giardia (16 uM) Mean % inhibition” value in test [2] is on record as 65%.

On to `CN1CCN(S(=O)(=O)c2ccc(-c3ccc4c(Nc5ncc(Cl)cn5)ccnc4c3)cc2)CC1` [MMV688283], for which, in test [1], the “Crypto (10 uM) Mean % inhibition” value amounted to 89%. Also, in test [2] (16 μM, 24 hours), the “G. lamblia inhibition of parasite growth in the initial screen” value is reported as no less than 95%. The “Giardia (16 uM) Mean % inhibition” value in test [2] turned out to be 95%. Moreover, in test [2] (luciferase expressing G. lamblia trophozoites, 24 hours, D-luciferin bioluminescence read-out), the “G. lamblia EC50” value is “not potent”.

For the compound `COc1ccc(-c2nnc3ccc(-c4cccc(C(C)C)c4)cn23)cc1OC` [MMV688313], the “Crypto (10 uM) Mean % inhibition” value in test [1] turned out to be 34%. Besides, the “Giardia (16 uM) Mean % inhibition” value in test [2] is listed as 26%.

Turning to `CC(=O)NC[C@H]1CN(c2ccc(-c3ccc(CNCc4cn[nH]n4)cc3)c(F)c2)C(=O)O1` [MMV688327], the “Crypto (10 uM) Mean % inhibition” value in test [1] is 33%. In addition, in test [2], the “Giardia (16 uM) Mean % inhibition” value was 21%.

`CC(=O)N1CCN(c2ccc(Oc3ccc(Cl)cc3O)cc2)CC1` [MMV688330]: the “Crypto (10 uM) Mean % inhibition” value in test [1] is on record as 56%. Besides, the “Giardia (16 uM) Mean % inhibition” value in test [2] is “X* (Mean or standard deviation are negative but not significantly different from the control to be a growth promoter)”.

Turning to `Nc1nc(N)c2c3c(sc2n1)CN(Cc1ccccc1)CC3` [MMV688345], the “Crypto (10 uM) Mean % inhibition” value in test [1] is on record as “X* (Mean or standard deviation are negative but not significantly different from the control to be a growth promoter)”. Further, the “Giardia (16 uM) Mean % inhibition” value in test [2] is listed as 16%.

Regarding `COC(=O)c1ccc(F)cc1NS(=O)(=O)c1cccc(-c2cnn(Cc3ccccc3)c2)c1` [MMV688350], in test [1], the “Crypto (10 uM) Mean % inhibition” value is reported as 53%. Moreover, the “Giardia (16 uM) Mean % inhibition” value in test [2] is reported as -6%.

In the case of `O=C1[C@@H](Oc2ccccc2)[C@@H](c2ccc(Cl)cc2)N1CCn1cnc2c(NCc3ccccc3)ncnc21` [MMV688352], the “Crypto (10 uM) Mean % inhibition” value in test [1] is reported as “X* (Mean or standard deviation are negative but not significantly different from the control to be a growth promoter)”. The “Giardia (16 uM) Mean % inhibition” value in test [2] is given as 41%.

On to `c1cc(C2=NCCN2)cc(-c2cc(-c3ccc(C4=NCCN4)cc3)no2)c1` [MMV688361], for which the “Crypto (10 uM) Mean % inhibition” value in test [1] is given as 44%. Besides, the “Giardia (16 uM) Mean % inhibition” value in test [2] was 38%.

As for `COc1cc(C2=NCCN2)cc2cc(-c3ccc(C4=NCCN4)cc3)oc12` [MMV688362], the “Crypto (10 uM) Mean % inhibition” value in test [1] is reported as 67%. Also, the “Giardia (16 uM) Mean % inhibition” value in test [2] was 54%.

On to `CC(C)(C)OC(=O)N1CCC(Cn2nc(-c3cnc4ccccc4c3)c3c(N)ncnc32)CC1` [MMV688364], for which the “Crypto (10 uM) Mean % inhibition” value in test [1] is “X* (Mean or standard deviation are negative but not significantly different from the control to be a growth promoter)”. The “Giardia (16 uM) Mean % inhibition” value in test [2] worked out at 56%.

Regarding `NCCN(C(=O)c1ccc(Cl)cc1Cl)c1ccc(OCc2ccc(Cl)cc2)cc1` [MMV688371], the “Crypto (10 uM) Mean % inhibition” value in test [1] is listed as 76%. Moreover, the “Giardia (16 uM) Mean % inhibition” value in test [2] worked out at 72%.

For `O=C(Nc1ccc(F)c(-c2nc3ncc(-c4ccccc4)cc3[nH]2)c1)N1CCCC1` [MMV688372], the “Crypto (10 uM) Mean % inhibition” value in test [1] was 48%. Also, the “Giardia (16 uM) Mean % inhibition” value in test [2] stood at 24%.

Turning to `COc1cc(C2=NCCN2)ccc1-c1cn(-c2cccc(C3=NCCN3)c2)nn1` [MMV688407], the “Crypto (10 uM) Mean % inhibition” value in test [1] is “X* (Mean or standard deviation are negative but not significantly different from the control to be a growth promoter)”. Besides, the “Giardia (16 uM) Mean % inhibition” value in test [2] was found to be 50%.

For `CC1=Nc2ccc(Cl)cc2C(c2ccccc2)N1CCNC(=O)CN(C)C` (centres unmarked) [MMV688410], in test [1], the “Crypto (10 uM) Mean % inhibition” value came to 62%. Further, in test [2], the “Giardia (16 uM) Mean % inhibition” value is recorded as 20%.

As to `Nc1ncnc2c1c(-c1cnc3ccccc3c1)nn2CC1CCNCC1` [MMV688411], the “Crypto (10 uM) Mean % inhibition” value in test [1] is “X* (Mean or standard deviation are negative but not significantly different from the control to be a growth promoter)”. Further, the “Giardia (16 uM) Mean % inhibition” value in test [2] is on record as “X* (Mean or standard deviation are negative but not significantly different from the control to be a growth promoter)”.

As to `CO[C@@H]1CN(c2ccc(C#CC3(O)CN4CCC3CC4)c(Cc3ccccc3)n2)C[C@H]1O` (some centres unmarked) [MMV688415], in test [1], the “Crypto (10 uM) Mean % inhibition” value was “X* (Mean or standard deviation are negative but not significantly different from the control to be a growth promoter)”. For the same compound, in test [2], the “Giardia (16 uM) Mean % inhibition” value is “X* (Mean or standard deviation are negative but not significantly different from the control to be a growth promoter)”.

In the case of `CC(C)(C)OC(=O)N1CCN(c2nccc(-c3ccc(-c4ccc(Cl)cc4)s3)n2)CC1` [MMV688416], the “Crypto (10 uM) Mean % inhibition” value in test [1] was 41%. Moreover, the “Giardia (16 uM) Mean % inhibition” value in test [2] was 55%.

Take `CC(C)n1nc(-c2cc3c(Cl)cccc3[nH]2)c2c(N)ncnc21` [MMV688417]: the “Crypto (10 uM) Mean % inhibition” value in test [1] was found to be 85%. Moreover, in test [2], the “Giardia (16 uM) Mean % inhibition” value is reported as 77%.

`Cn1ccnc1CNCCS(=O)(=O)c1cccc(Nc2ccc(-c3cccc(F)c3)cn2)c1` [MMV688466]: in test [1], the “Crypto (10 uM) Mean % inhibition” value was found to be 43%. The “Giardia (16 uM) Mean % inhibition” value in test [2] was 28%.

Regarding `CCCCN(CCCC)c1c(C#N)cc(S(=O)(=O)Nc2ccccc2)cc1C#N` [MMV688467], the “Crypto (10 uM) Mean % inhibition” value in test [1] is “X* (Mean or standard deviation are negative but not significantly different from the control to be a growth promoter)”. For the same compound, the “Giardia (16 uM) Mean % inhibition” value in test [2] is 60%.

On to `Nc1ncnc2n[nH]c(Cc3cccc4ccccc34)c12` [MMV688469], for which the “Crypto (10 uM) Mean % inhibition” value in test [1] amounted to 57%. The “Giardia (16 uM) Mean % inhibition” value in test [2] is given as 9%.

Turning to `CS(=O)(=O)N1CCC(CCn2nc(Cc3cccc4ccccc34)c3c(N)ncnc32)CC1` [MMV688470], the “Crypto (10 uM) Mean % inhibition” value in test [1] turned out to be 80%. In addition, the “Giardia (16 uM) Mean % inhibition” value in test [2] is listed as 23%.

For the compound `CC(C(=O)Nc1ccc2oc(-c3ccncc3)nc2c1)c1ccccc1` (centres unmarked) [MMV688471], the “Crypto (10 uM) Mean % inhibition” value in test [1] is given as “X* (Mean or standard deviation are negative but not significantly different from the control to be a growth promoter)”. In addition, the “Giardia (16 uM) Mean % inhibition” value in test [2] was found to be 19%.

As to `CC(Oc1cccc(Cl)c1)C(=O)Nc1ccc2oc(-c3ccncc3)nc2c1` (centres unmarked) [MMV688472], in test [1], the “Crypto (10 uM) Mean % inhibition” value was “X* (Mean or standard deviation are negative but not significantly different from the control to be a growth promoter)”. Further, the “Giardia (16 uM) Mean % inhibition” value in test [2] is 55%.

Consider `COc1cc(C2=NCCN2)ccc1-n1cc(-c2cccc(C3=NCCN3)c2)nn1` [MMV688474], for which the “Crypto (10 uM) Mean % inhibition” value in test [1] was “X* (Mean or standard deviation are negative but not significantly different from the control to be a growth promoter)”. In addition, the “Giardia (16 uM) Mean % inhibition” value in test [2] is 18%.
